# Results taken from BindingDB's records for doi:10.1016/S0960-894X(00)80339-X (1993).
# Target: Squalene monooxygenase (Sus scrofa)
# Test: Inhibitory concentration at which 50% decrease in the activity of Squalene epoxidase in pig liver microsomes
row,IC50,SMILES
1,13 µM,"CC(C)=CCC/C(C)=C/CC/C(C)=C/CC/C=C(\C)CC/C=C(\C)CCCN(C)O [N-Methyl-N-((4E,12E,16E,20E)-4,8,13,17,21-pentamethyl-docosa-4,8,12,16,20-pentaenyl)-hydroxylamine]"
2,> 400 µM,"CC(C)=CCC/C(C)=C/CC/C(C)=C/CC/C=C(\C)CC/C=C(\C)CC/C=C/[N+](=O)[O-] [(1E,5E,9E,13E,17E)-5,9,14,18,22-Pentamethyl-1-nitro-tricosa-1,5,9,13,17,21-hexaene]"
